Measurements as given in article PMC4157579, “Lysine Acetylation Controls Local Protein Conformation by Influencing Proline Isomerization” (Molecular Cell, 2014).
Ends that are not written are not given here. * marks the point of attachment. pNA = O=[N+]([O-])c1ccc(N*)cc1

Key:
chymotrypsin = experiment: Chymotrypsin-coupled proline isomerization assay (pNA release); type: biochemical; settings: 10 μl of 7.8 mM pNA peptide per 1 ml, 395 nm, every 0.6 s for 20 s, first 0.6–10.2 s, mean initial rate, n = 4–5
Description: Figure 6 K14ac Promotes P16trans (A) Relative binding ± SEM (n = 2–11) assessed by surface plasmon resonance of purified recombinant Spt7 bromodomain (residues 363–619) to the indicated H3 peptides (11–26). (B) Coomassie-stained gel showing a pull-down experiment, quantified relative to the K18ac peptide, with the indicated H3 peptides and the purified recombinant Spt7 bromodomain (n = 3). (C) A chymotrypsin-coupled assay for proline isomers using synthetic hexamers based on GGKAPF-pNA (unmodified). pNA is released by chymotrypsin cleavage only from the trans-proline-containing peptide. (D) K14ac and substitutions at K14 influence isomerization at A15-P16 and pNA release, expressed as mean initial rate ± SEM (n = 4–5) over the first 0.6–10.2 s of the reaction. (E) Schematic showing how K14ac or the K14R substitution influence A15-P16 conformation. […]
Saccharomyces cerevisiae strains used in this study are shown in Supplemental Experimental Procedures. […] Quantitation was performed using ImageJ software. […] The P16 proline isomerase assay was performed as described ([Shan et al., 1994]) using 10 μl of 7.8 mM pNA peptide (Proteogenix) solution per 1 ml assay reaction and pNA release monitored at 395 nm. […] Sensorgrams, binding curves, and Kd values were analyzed with BIA T100 and T200 evaluation software (GE Healthcare) using a 1:1 binding model. […]

[1] = test system: Spt7 bromodomain (residues 363–619); experiment: SPR binding of H3 peptides to immobilized Spt7 bromodomain; parameters: species or system yeast; settings: SPR, Biacore T100/T200, 25°C, peptides 1-200 µM in HBS-P+, NTA chip-captured His-tagged bromodomain, 1:1 model; Figure 6A, n = 2–11
Description: (§1) We developed a second assay that involves monitoring the effect of the P16V substitution on the binding of the Spt7 bromodomain to an H3 peptide modified by acetylation at K14 and/or K18 using surface plasmon resonance (SPR) (Figures 6A, S4A, and S4B) or by pull downs (Figures 6B and S4C). Bromodomains are acetyl-lysine binding domains, found in a number of chromatin-associated proteins ([Taverna et al., 2007]) including Spt7. The function and binding specificity of the Spt7 bromodomain are currently unknown, but it preferentially interacts with hyperacetylated histones in vitro ([Hassan et al., 2007]). […] The binding of the Spt7 bromodomain to the P16V-substituted K18ac peptide improved binding by ∼2-fold. […] We reasoned that this could reflect an effect of the side chain on binding or an influence on the conformation of the A15-P16 bond. […] The corollary of this is that acetylation of K14 would correlate with the A15-P16 bond in the trans configuration, supporting ideas that the peptidyl-prolyl bond conformation is mainly determined by local effects in proteins ([Reimer et al., 1998]).
(§2) Figure 6 K14ac Promotes P16trans (A) Relative binding ± SEM (n = 2–11) assessed by surface plasmon resonance of purified recombinant Spt7 bromodomain (residues 363–619) to the indicated H3 peptides (11–26). (B) Coomassie-stained gel showing a pull-down experiment, quantified relative to the K18ac peptide, with the indicated H3 peptides and the purified recombinant Spt7 bromodomain (n = 3). (C) A chymotrypsin-coupled assay for proline isomers using synthetic hexamers based on GGKAPF-pNA (unmodified). pNA is released by chymotrypsin cleavage only from the trans-proline-containing peptide. (D) K14ac and substitutions at K14 influence isomerization at A15-P16 and pNA release, expressed as mean initial rate ± SEM (n = 4–5) over the first 0.6–10.2 s of the reaction. (E) Schematic showing how K14ac or the K14R substitution influence A15-P16 conformation. (F) Schematic showing how dynamic K14ac influences A15-P16 conformation and K4me3 (K4 and K14 denote that these residues are not trimethylated or acetylated respectively). (G) The balance of positive-acting factors (right panel) and negative-acting factors (left panel) controls levels of K4me3 at individual genes. […] See also Figure S4. […]
(n=5771) with the ratios of H3-normalised K4me3 in the K14A and P16V strains relative to the WT strain. Genes with ratios > 2 (n = 7 and 4 for K14A/WT and P16V/WT respectively) have been removed for clarity. Highlighted are the genes with the 200 highest and lowest ratios selected for further analysis (K14/P16-independent and K14/P16-dependent gene classes respectively). (C) Overlap (%) between the four selected gene classes from Figure S3B and the genes temporally expressed during the yeast metabolic cycle (YMC: OX, oxidative; R/B, reductive building; R/C, reductive charging phase), induced/repressed by the environmental stress response (ESR), classed as ribosomal protein genes (RPGs) or ribosome biogenesis genes (Ribis), or regulated predominantly by SAGA or TFIID. […]
YMC and ESR expression data were taken from (Tu et al., 2005) and (Gasch et al., 2000) respectively. SAGA/TFIID-regulated genes were obtained from (Huisinga and Pugh, […]
Figure S4. (Related to Figure 6)
(A) Surface plasmon resonance (SPR) affinity fits for the indicated H3 peptides encompassing residues 11-26 binding to the Spt7 bromodomain (residues 363-619). Also shown is a typical sensorgram of H3 peptide binding to the Spt7 bromodomain […]
values ± SEM for Spt7 binding to variously-modified H3 peptides. (C) A peptide pull-down experiment with a range of H3 peptides and the WT or substituted Spt7 bromodomain […]
Peptides for bromodomain interaction studies
Peptides were synthesized at GL Biochem (Shanghai) LTD, China and Proteogenix, France.
(§3) Purity was determined with MALDI-TOF mass spectrometry and HPLC and the peptides used […]
The peptide sequences are listed in the […]

[2] = test system: Spt7 bromodomain (residues 363–619); experiment: Peptide pull-down with Spt7 bromodomain; type: binding, yeast
Description: as §1, §2
(n=5771) with the ratios of H3-normalised K4me3 in the K14A and P16V strains relative to the WT strain. Genes with ratios > 2 (n = 7 and 4 for K14A/WT and P16V/WT respectively) have been removed for clarity. Highlighted are the genes with the 200 highest and lowest ratios selected for further analysis (K14/P16-independent and K14/P16-dependent gene classes respectively). […]
as §3

[3] = test system: bromodomain carrying alanine substitutions (Y500A/Y520A/N521A); experiment: Peptide pull-down with substituted Spt7 bromodomain; type: binding, yeast; settings: bromodomain with alanine at Y500, Y520 and N521, Figure S4C
Description: as §1, with “1998]). […]” for “1998]).”
bin expressed as a proportion of the total K4me3 across the gene. […] P values were calculated from a simulated probability distribution curve. […]
as §3

Substance | Initial rate of cleavage (pNA release) (chymotrypsin) | Binding to Spt7 bromodomain [1] | Binding to Spt7 bromodomain ([2]; SulfoLink resin, bromodomain 30 µg/ml, 2 h at 4°C, Coomassie gel, relative to K18ac peptide, Figure 6B, n = 3) | Enrichment of binding over the unmodified peptide ([2]; WT versus Y500A/Y520A/N521A bromodomain, Figure S4C) | Binding to substituted Spt7 bromodomain [3]
GGKAPF-pNA [unmodified peptide] | comparable to that reported previously in a similar assay | – | – | – | –
TGGKAPR(Kac)QLASKAARC [K18ac, H3 peptide (11–26) acetylated at K18] | – | specifically recognized acetylated K18 | specifically recognized acetylated K18 | enriched | lack of binding
